Literature values as cited in patent publication US7833986B2, “Anti-inflammatory peptides” (Salpep Biotechnology Inc., priority 2002, dated 2010).

Tested on: lipopolysaccharide-induced hypotension
Conditions: Mathison et al. (1997)

submandibular gland peptide-T [SGP-T]
doses that inhibit lipopolysaccharide-induced hypotension: ≥ 1 µg/kg
